Like-named read-outs stand apart in the source and are kept apart here. Blank lines part the entries; values can stand above or below the molecule they belong to.
What was measured:
[1] = test system: Wnt/β-catenin target gene protein levels; test: Evaluation of Wnt signaling inhibition by Western blot; type: cell-based; conditions: 5 μM, 18 h; HCT116, SW-480 and CRC240 cells
Method: All cells were plated in 6 well-plates and allowed to attach overnight in a 5% CO2 incubator at 37° C. to reach 50-70 percent confluency. The cells were then treated with the indicated compound for 18 hours. Whole cell lysates were prepared by adding 200 μL 1.5× Laemmli sample buffer. Cytosolic lysates were prepared by treating cells with hypotonic buffer and dispersing cell aggregates by drawing the lysate buffer in and out a syringe equipped with 25G×1 needles. The cytosolic lysate was centrifuged at 15,000 rpm for 120 minutes, 200 μL of cytosol lysate was collected and 67 μL of 4× Laemmli sample buffer was added. Whole cell lysates were subjected to Western blot analysis using antibodies to c-Myc (Santa Cruz Biotechnology, catalog number SC-40), Cyclin D1 (Cell Signaling Technology, catalog number 2978), and Survivin (Cell Signaling Technology, catalog number 2808). Cytosol lysate were subjected to Western blot analysis using antibodies to β-catenin (Santa Cruz Biotechnology SC-7963) and Axin2 (Cell Signaling Technology, catalog number 2151). An antibody to β-actin (Santa Cruz Biotechnology, catalog number SC-47798) was used as a loading control.

[2] = Pharmacokinetic analysis of DK419 in mouse plasma after oral dose; type: in vivo, NOD/SCID mice; conditions: mice; for Cmax: read-out: Cmax (second line)
Method: DK419 was dissolved in 10% N-Methyl pyrrolidinone (Sigma, catalog number 328634) and 90% PEG300 (Sigma, catalog number 20237) at 0.2 mg/mL, and dosed orally to NOD/SCID mice (n=4) at 1 mg/kg. Blood samples (20 μL) were collected serially from tail vein into vials containing 1 μL of 1000 U/mL heparin at the following time-points: pre-dose, 0.25, 0.5, 1, 2, 4, 8, 24, 48, and 72 h after drug administration. After centrifugation at 1300 g for 5 min at room temperature, plasma was separated and stored at −80° C. until the analysis.
Quantification of DK419 in mouse plasma was started by vigorous agitation of 4 μL sample, 10 μL of 20 ng/mL DK4-106-3 (in-house made internal standard analog), 20 μL of water, and 100 μL of ethyl-acetate. After centrifugation at 16,000 g for 5 min at room temperature, 80 μL of organic (upper) layer was dried under nitrogen stream, residue reconstituted with a mixture of 50% mobile phase A (10 mM ammonium acetate, 0.1% formic acid) and 50% mobile phase B (methanol), and 5 μL injected into LC/MS/MS system. Analysis was performed on Shimadzu series 20A LC/Applied Biosystems/SCIEX API 4000 QTrap MS/MS instrument. Column: Agilent Eclipse 4.6×50 ram, 1.8 μm at 50° C. Elution gradient: 0-2 min 50-90% B, 2-2.5 min 90% B, 2.5-2.7 min, 90-50% B; flow […]. MS/MS transitions followed: 405.8/218.9 (DK419) and 331.8/311.8 (DK4-106-3; int. std.). Run time: 5 min. Calibration samples were prepared by adding pure DK419 to pooled mouse plasma in 2.4 ng/mL (LLOQ)-1000 ng/mL range and analyzed alongside the PK study samples. The calibration curve was linear (r=0.999).

CRC240 PDX tumors = test: CRC240 PDX xenograft tumor study; type: in vivo, NOD/SCID mice; conditions: 11 days
Method: The development of CRC240 PDX was previously reported (Lu et al. PLoS One 2017, 12, e0169439). Briefly, CRC240 PDX tissue were wash in PBS and then minced in PBS at 150 mg/mL. 200 μL of the PDX tissue suspension were implanted into the flanks of NOD/SCID mice. When PDX tumor volume reached about 100 mm^3, mice were randomized and were orally dosed for 11 days daily byniclosamide, DK419, or the vehicle control (10% 1-methyl-2-pyrrolidmone and 90% PEG300). […] DK419 was dissolved in the vehicle at 0.2 mg/ml and dosed at 1 mg/kg. Tumor size and body weight were measured at day 0, 4, 8, and 11. The day after the last dose, animals were euthanized and tumor samples were collected and processed for Western blot analysis. Briefly, tumor samples were lysed in RIPA Buffer (Thermofisher Scientific, catalog number 89900). Sample lysates were subjected to Western blot using antibodies to Survivin, c-Myc, and Axin2 as described above. β-actin was used as a loading control.

[3] = niclosamide 200 mg/kg oral, mice, non-compartmental, cited from earlier work
HCT116 cells = conditions: 0.5 and 1.5 μM; cited from earlier work
[4] = DK419 1 mg/kg oral, compartmental
[5] = DK419 1 mg/kg oral, non-compartmental

- AUCinf [2, 4]: 16.3 µg·h/mL (per kg BW)
- AUCinf/DOSE [2, 4]: 16.3 µg·h/mL (per mg)
- t1/2-absorption [2, 4]: 2.0 h
- t1/2-elimination [2, 4]: 10.8 h
- Tmax ([2]; DK419 1 mg/kg oral, compartmental, 1st order extrav. input, 1st order elimination): 5.85 h
- Cmax [2, 4]: 1.79 µM
- AUCinf [2, 5]: 16.9 µg·h/mL (per kg BW)
- AUCinf/DOSE [2, 5]: 16.9 µg·h/mL (per mg)
- CL/F [2, 5]: 0.06 L/h (per kg BW)
- MRT [2, 5]: 15.8 h
- t1/2-elimination [2, 5]: 9.2 h
- Tmax ([2]; DK419 1 mg/kg oral, non-compartmental extravascular input): 4.5 h
- AUC0-LAST ([2]; DK419 1 mg/kg oral, non-compartmental, 0-72 h): 16.8 µg·h/mL (per kg BW)
- Cmax [2, 5]: 1.84 µM
- CL/F ([2]; NOD/SCID, mouse, plasma, DK419 1 mg/kg oral, compartmental, read-out: CL/F (converted)): 0.06 L/h/kg
- time for which plasma levels were sustained ([2]; single 1 mg/kg oral dose): more than 24 hours
- plasma concentration at 24 hours relative to its IC50 in the TOPFlash and MTS assays ([2]; single 1 mg/kg oral dose, 24 hours): 3 fold
Compound: O=C(Nc1ccc(C(F)(F)F)cc1)c1cc(Cl)cc2nc(C(F)(F)F)[nH]c12 [DK419, 6-chloro-2-(trifluoromethyl)-N-(4-(trifluoromethyl)phenyl)-1H-benzo[d]imidazole-4-carboxamide]
- levels of Axin2, β-catenin, c-Myc, Cyclin D1 and Survivin by Western blot [1]: reduced levels
- growth of CRC240 PDX tumors (tumor volume) (CRC240 PDX tumors; 1 mg/kg (2.4 μmol/kg) oral once a day, vs vehicle): inhibited the growth of CRC240 PDX tumors compared to vehicle control
- body weight (CRC240 PDX tumors; 1 mg/kg oral once a day): Neither DK419 nor niclosamide produced a change in body weight
- levels of Wnt/β-catenin target genes (Axin2, Survivin, c-Myc) in tumors, Western blot (CRC240 PDX tumors; 1 mg/kg oral once a day, tumors collected day after last dose, vs vehicle): reduced significantly

Compound: O=C(Nc1ccc([N+](=O)[O-])cc1Cl)c1cc(Cl)ccc1O [Niclosamide, reference compound]
- levels of Axin2, β-catenin, c-Myc, Cyclin D1 and Survivin by Western blot [1]: reduced levels
- growth of CRC240 PDX tumors (tumor volume) (CRC240 PDX tumors; 72 mg/kg (220 μmol/kg) oral once a day, vs vehicle): inhibited tumor growth
- body weight (CRC240 PDX tumors; 72 mg/kg oral once a day): Neither DK419 nor niclosamide produced a change in body weight
- AUC0-LAST ([3]; 0-24 h): 1.01 µg·h/mL (per kg BW)
- AUCinf [3]: 1.02 µg·h/mL (per kg BW)
- MRT [3]: 6.8 h
- Cmax ([3]; read-out: Cmax (second line)): 2.73 µM
- oxygen consumption rate in HCT116 cells (HCT116 cells): caused oxygen consumption rate to increase
